Laboratory results from patent US20250353809A1, “NITROGEN-CONTAINING CHAIN COMPOUND, PREPARATION METHOD, COMPOSITION CONTAINING SAID COMPOUND, AND USE THEREOF” (SHANGHAI RNACURE BIOPHARMA CO., LTD., priority 2022, published 2025).

Tests used:
[1] = test system: female Balb/C mice; experiment: In-vivo bioluminescence at lower limb administration site after intramuscular injection of Fluc mRNA LNP; conditions: 5 μg/mouse, Table 3 LNP
Description: In this example, LQ104-1 to LQ104-8 (encapsulating Fluc mRNA) from Example 1 were injected via tail vein into female Balb/C mice (Viton Lihua) aged 6 to 8 weeks at a dose of 5 μg/mouse (n=3, i.e. 3 mice were used for injection and testing in each group, and the data results presented were the mean measurements of each group). […] potassium salt was intraperitoneally injected at specific time points after administration (in this example, 6th hour, 24th hour, and 48th hour), and then the luminescence was detected by an IVIS Spectrum small animal living imager instrument (manufacturer: PerkinElmer). The overall luminescence intensity of live expression sites (such as the liver) in mice was counted. […] The overall luminescence intensity was the luminescence intensity data, measured by bioluminescence imaging, of the luminescent site obtained 6 to 15 minutes (min) after intraperitoneal injection of […] potassium salt. The overall luminescence intensity of the in vivo expression area was counted by using Living Image software (manufacturer: PerkinElmer), furthermore, an area under the curve (AUC, unit: p/s*hour) was calculated by using GraphPad software, and the AUC in each example of the present application is the area under the curve of a line connecting measurement points of the overall luminescence intensity from the 4th or 6th hour after drug administration (using the experimental method of the present application, peak values are the same from 3-6 hours after drug administration) to the 48th hour after drug administration. Test results were shown in FIG. 3 and FIG. 4A, as well as Table 2.
Furthermore, referring to the mouse in-vivo experimental method of Example 3, each group of LNP preparations in this example was injected into female Balb/C mice aged 6 to 8 weeks through tail vein injection or intramuscular injection of the lower limbs at a dose of 5 μg/mouse. The overall luminescence intensity of the liver or lower limb administration site was counted, and the test results were shown in FIG. 5A to FIG. 5D and Table 4A to Table 4D). […]

[2] = test system: female Balb/C mice; experiment: In-vivo bioluminescence (overall luminescence intensity, AUC) after tail vein injection of Fluc mRNA LNP; conditions: 5 μg/mouse, liver site, Table 3 LNP
[3] = Encapsulation efficiency of LNP (Quant-it Ribogreen RNA quantitative assay kit); assay type: physicochemical
[4] = pKa of LNP by TNS dye binding test; assay type: physicochemical; conditions: Table 3, pKa of the LNP, 40:11:47.4:1.6, N/P 8:1
Description: (§1) In this example, the ionizable lipids prepared from Preparation Example 3 to Preparation Example 17 were selected. Following the same method as in Example 1, an LNP preparation (encapsulating Fluc mRNA) was prepared according to a molar ratio and a nitrogen-to-phosphorus ratio shown in Table 3. Malvern Zetasizer Ultra was used to measure a particle size, a PDI, and a surface potential of each LNP preparation; a Quant-it Ribogreen RNA quantification assay kit (manufacturer: ThermoFisher Scientific, item number: R11490) was used to measure encapsulation efficiency of LNP; and a dye binding test of 6-(p-Toluidino)-2-naphthalene sulfonic acid sodium salt (TNS, purchased from Nanjing Xize Pharmaceutical Technology Co., Ltd., item number: XZ0743) was used to measure pKa of the LNP.

[5] = Particle size and PDI of LNP preparation by dynamic light scattering (Malvern Zetasizer Ultra); assay type: physicochemical
[6] = Surface potential of LNP preparation (Malvern Zetasizer Ultra); assay type: physicochemical; conditions: Table 3; LNP 40:11:47.4:1.6, N/P 8:1
Description: as §1

[7] = test system: female Balb/C mice; experiment: Total Spike antibody titer in serum (ELISA) after intramuscular injection of Spike mRNA LNP; assay type: in vivo; conditions: 2 μg/mouse, second injection on 21st day, serum 7th day after second administration, n=8, compared with PBS
[8] = Table 3, LNP 40:11:47.4:1.6, N/P 8:1
[9] = Table 3, LNP lipid:DSPC:cholesterol:DMG-PEG = 40:11:47.4:1.6, nitrogen-to-phosphorus ratio 8:1, Fluc mRNA
[10] = Table 1, Example 1 LNP preparations

Row | Encapsulation efficiency (%) [3, 8] [%] | pKa [4] | PDI [5, 8] | Particle size (nm) [5, 9] [nm] | Surface potential (mV) [6] [mV] | Compound | AUC (p/s*hour) ([1]; Table 4C (FIG. 5C)) | AUC (p/s*hour) ([2]; Table 4A (FIG. 5A)) | AUC (p/s*hour) ([1]; Table 4D (FIG. 5D)) | AUC (p/s*hour) ([2]; Table 4B (FIG. 5B)) | Encapsulation efficiency (%) [3, 10] [%] | PDI [5, 10] | Particle size (nm) ([5]; Table 1, Example 1 LNP preparations (ionizable lipid:DSPC:cholesterol:DMG-PEG)) | total Spike protein antibody titer [7]
1 | 96.9 | 7.19 | 0.082 | 85.67 | −1.066 | CCCCCCCC(CCCCCCC)OC(=O)CCCCCCCN(CCO)CCN(CCO)CCCCCCCC(=O)OC(CCCCCCC)CCCCCCC [LQ104-E17b-1] |  |  | 2.66E+09 | 3.16E+10 |  |  |  | 
2 | 97.4 | 6.852 | 0.045 | 74.14 | −1.852 | CCCCCCCCC(CCCCCCCC)OC(=O)CCCCCCN(CCO)CCN(CCO)CCCCCCC(=O)OC(CCCCCCCC)CCCCCCCC [LQ104-E17b-2] |  |  | 2.49E+09 | 5.58E+10 |  |  |  | 
3 | 97.4 | 7.153 | 0.087 | 77.34 | −2.203 | CCCCCCCCC(CCCCCC)C(=O)OCCCCCCN(CCO)CCN(CCO)CCCCCCOC(=O)C(CCCCCC)CCCCCCCC (stereo not drawn) [LQ104-E17b-3R] |  |  | 1.47E+09 | 6.33E+09 |  |  |  | 
4 | 97.4 | 7.15 | 0.058 | 85.57 | −2.788 | CCCCCCCCC(CCCCCC)OC(=O)CCCCCCN(CCO)CCN(CCO)CCCCCCC(=O)OC(CCCCCC)CCCCCCCC (stereo not drawn) [LQ104-E17b-3] |  |  | 3.82E+09 | 9.91E+10 |  |  |  | 
5 | 98.0 | 6.469 | 0.061 | 72.30 | −3.406 | CCCCCCCCCC(CCCCCCC)OC(=O)CCCCCN(CCO)CCN(CCO)CCCCCC(=O)OC(CCCCCCC)CCCCCCCCC (stereo not drawn) [LQ104-E17b-4] |  |  | 2.86E+09 | 7.68E+10 |  |  |  | 
6 | 97.4 | 7.033 | 0.081 | 80.10 | −2.013 | CCCCCCCCC(CCCCCC)C(=O)OCCCCCCCN(CCO)CCN(CCO)CCCCCCCOC(=O)C(CCCCCC)CCCCCCCC (stereo not drawn) [LQ104-E18b-2R] |  |  | 1.73E+09 | 1.01E+10 |  |  |  | 
7 | 97.5 | 7.262 | 0.084 | 84.46 | −1.109 | CCCCCCCCC(CCCCCC)OC(=O)CCCCCCCN(CCO)CCN(CCO)CCCCCCCC(=O)OC(CCCCCC)CCCCCCCC (stereo not drawn) [LQ104-E18b-2] |  |  | 3.06E+09 | 5.32E+10 |  |  |  | 
8 | 97.4 | 7.039 | 0.063 | 90.39 | −2.466 | CCCCCCCCCC(CCCCCCC)OC(=O)CCCCCCN(CCO)CCN(CCO)CCCCCCC(=O)OC(CCCCCCC)CCCCCCCCC (stereo not drawn) [LQ104-E18b-3] |  |  | 4.80E+09 | 1.06E+11 |  |  |  | 

Second part, the compound before the results:

Row | Compound | Encapsulation efficiency (%) [3, 8] [%] | pKa [4] | PDI [5, 8] | Particle size (nm) [5, 9] [nm] | Surface potential (mV) [6] [mV] | AUC (p/s*hour) ([1]; Table 4C (FIG. 5C)) | AUC (p/s*hour) ([2]; Table 4A (FIG. 5A)) | AUC (p/s*hour) ([1]; Table 4D (FIG. 5D)) | AUC (p/s*hour) ([2]; Table 4B (FIG. 5B)) | Encapsulation efficiency (%) [3, 10] [%] | PDI [5, 10] | Particle size (nm) ([5]; Table 1, Example 1 LNP preparations (ionizable lipid:DSPC:cholesterol:DMG-PEG)) | total Spike protein antibody titer [7]
9 | CCCCCCCC(CCCCCCC)OC(=O)CCCCCN(CCO)CCN(CCO)CCCCCC(=O)OC(CCCCCCC)CCCCCCC [LQ104-E15b-1] | 98.1 | 6.754 | 0.059 | 71.08 | −4.22 | 5.58E+09 | 2.26E+10 |  |  |  |  |  | 
10 | CCCCCCCCC(CCCCCCCC)OC(=O)CCCCN(CCO)CCN(CCO)CCCCC(=O)OC(CCCCCCCC)CCCCCCCC [LQ104-E15b-2] | 96.8 | 6.470 | 0.059 | 56.47 | −6.81 |  |  |  |  |  |  |  | 
11 | CCCCCCCCCC(CCCCCCCCC)OC(=O)CCCN(CCO)CCN(CCO)CCCC(=O)OC(CCCCCCCCC)CCCCCCCCC [LQ104-E15b-3] | 96.0 | 6.161 | 0.083 | 52.80 | −10.70 |  |  |  |  |  |  |  | 
12 | CCCCCCCC(CCCCCCC)OC(=O)CCCCCCN(CCO)CCN(CCO)CCCCCCC(=O)OC(CCCCCCC)CCCCCCC [LQ104-E16b-1] | 97.2 | 7.109 | 0.044 | 84.84 | −3.35 | 2.30E+09 | 2.74E+10 |  |  |  |  |  | 
13 | CCCCCCCCC(CCCCCCCC)OC(=O)CCCCCN(CCO)CCN(CCO)CCCCCC(=O)OC(CCCCCCCC)CCCCCCCC [LQ104-E16b-2] | 97.9 | 6.761 | 0.098 | 75.44 | −4.38 | 3.50E+09 | 8.98E+10 |  |  |  |  |  | 
14 | CCCCCCCCC(CCCCCC)C(=O)OCCCCCN(CCO)CCN(CCO)CCCCCOC(=O)C(CCCCCC)CCCCCCCC (stereo not drawn) [LQ104-E16b-3R] | 96.8 | 6.802 | 0.088 | 89.68 | −4.59 | 2.19E+09 | 1.47E+10 |  |  |  |  |  | 
15 | CCCCCCCCC(CCCCCC)OC(=O)CCCCCN(CCO)CCN(CCO)CCCCCC(=O)OC(CCCCCC)CCCCCCCC (stereo not drawn) [LQ104-E16b-3] | 97.6 | 6.773 | 0.091 | 78.35 | −5.94 | 2.10E+09 | 1.95E+10 |  |  |  |  |  | 
16 | CCCCCCCCCCCOC(=O)CCCCCN(CCCCCCCC(=O)OC(CCCCCCCC)CCCCCCCC)CCOC(=O)CC(=O)OCCN(CCCCCCCC(=O)OC(CCCCCCCC)CCCCCCCC)CCCCCC(=O)OCCCCCCCCCCC [LQ107] |  |  |  |  |  |  |  |  |  | 83.7 | 0.025 | 83.56 | did not increase
